In patent US9695155B2, “Herbicidal substituted pyrimidinyloxy benzene compounds” (E. I. DU PONT DE NEMOURS AND COMPANY, priority 2013, dated 2017):

How the values were obtained:
corn [1] = experiment: Test A preemergence; type: in vivo, Zea mays
Procedure, shortened: (§1)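 Visual 0–100 rating (100 = complete control) taken about 10 d post-treatment relative to untreated checks. Preemergence: directed soil spray on sown loam/sand pots. Postemergence: seedlings 2–10 cm, 1–2 leaf. Non-phytotoxic solvent formulation with surfactant.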

barnyardgrass [2] = experiment: Test A postemergence; type: in vivo, Echinochloa crus-galli
Procedure, shortened: as §1

barnyardgrass [3] = experiment: Test B flooded paddy test; type: in vivo, Echinochloa crus-galli; details: Flood, 250 g ai/ha; 0 to 100 scale where 0 is no effect and 100 is complete control
Procedure, shortened: (§2)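 Plants were grown to the 2-leaf stage, then pots were flooded to 3 cm above the soil and compounds were applied directly into the paddy water. That depth was held throughout, and after 13 to 15 days in the greenhouse injury was rated visually against controls on a 0–100 scale (0 no effect, 100 complete control).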

corn [4] = experiment: Test A postemergence; type: in vivo, Zea mays
Procedure, shortened: as §1

giant foxtail [5] = experiment: Test A preemergence; type: in vivo, Setaria faberii
Procedure, shortened: as §1

sedge, umbrella = experiment: Test B flooded paddy test; type: in vivo, Cyperus difformis; details: Flood, 250 g ai/ha; 0 to 100 scale where 0 is no effect and 100 is complete control
Procedure, shortened: as §2

barnyardgrass [6] = experiment: Test A preemergence; type: in vivo, Echinochloa crus-galli
Procedure, shortened: as §1

velvetleaf [7] = experiment: Test A preemergence; type: in vivo, Abutilon theophrasti
Procedure, shortened: as §1

giant foxtail [8] = experiment: Test A postemergence; type: in vivo, Setaria faberii
Procedure, shortened: as §1

morningglory [9] = experiment: Test A postemergence; type: in vivo, Ipomoea spp.
Procedure, shortened: as §1

pigweed [10] = experiment: Test A postemergence; type: in vivo, Amaranthus retroflexus
Procedure, shortened: as §1

pigweed [11] = experiment: Test A preemergence; type: in vivo, Amaranthus retroflexus
Procedure, shortened: as §1

Heteranthera limosa = experiment: Test B flooded paddy test; type: in vivo; details: Flood, 250 g ai/ha; 0 to 100 scale where 0 is no effect and 100 is complete control
Procedure, shortened: as §2

morningglory [12] = experiment: Test A preemergence; type: in vivo, Ipomoea spp.
Procedure, shortened: as §1

wheat [13] = experiment: Test A postemergence; type: in vivo, Triticum aestivum
Procedure, shortened: as §1

wheat [14] = experiment: Test A preemergence; type: in vivo, Triticum aestivum
Procedure, shortened: as §1

large (Lg) crabgrass [15] = experiment: Test A preemergence; type: in vivo, Digitaria sanguinalis
Procedure, shortened: as §1

rice = experiment: Test B flooded paddy test; type: in vivo, Oryza sativa; details: Flood, 250 g ai/ha; 0 to 100 scale where 0 is no effect and 100 is complete control
Procedure, shortened: as §2

large (Lg) crabgrass [16] = experiment: Test A postemergence; type: in vivo, Digitaria sanguinalis
Procedure, shortened: as §1

velvetleaf [17] = experiment: Test A postemergence; type: in vivo, Abutilon theophrasti
Procedure, shortened: as §1

[18] = 1000 g ai/ha, 0 to 100 scale, 0 no effect, 100 complete control, approx. 10 days
[19] = 1000 g ai/ha, 0 to 100 scale, 0 no effect, 100 complete control
[20] = 125 g ai/ha, 0 to 100 scale where 0 is no effect and 100 is complete control
[21] = 500 g ai/ha, 0 to 100 scale, 0 no effect, 100 complete control, approx. 10 days
[22] = 500 g ai/ha, 0 to 100 scale, 0 no effect, 100 complete control
[23] = 500 g ai/ha, 0 to 100 scale where 0 is no effect and 100 is complete control

SMILES: C[Si](C)(C)c1cn(-c2ccccc2Oc2ncc(Cl)cn2)nn1 [Compound 297]
- Corn plant response rating (corn [1]; [18]): 0
- Plant response rating, Barnyardgrass (barnyardgrass [2]; [19]): 10
- Plant response rating, Barnyardgrass (barnyardgrass [3]): 0
- Plant response rating, Corn (corn [4]; [19]): 0
- Foxtail, Giant plant response rating (giant foxtail [5]; [18]): 80
- Plant response rating, Sedge, Umbrella (sedge, umbrella): 0
- Barnyardgrass plant response rating (barnyardgrass [6]; [18]): 10
- Velvetleaf plant response rating (velvetleaf [7]; [18]): 50
- Plant response rating, Foxtail, Giant (giant foxtail [8]; [19]): 10
- Plant response rating, Morningglory (morningglory [9]; [19]): 30
- Plant response rating, Pigweed (pigweed [10]; [19]): 70
- Pigweed plant response rating (pigweed [11]; [18]): 70
- Plant response rating, Ducksalad (Heteranthera limosa): 0
- Morningglory plant response rating (morningglory [12]; [18]): 0
- Plant response rating, Wheat (wheat [13]; [19]): 0
- Wheat plant response rating (wheat [14]; [18]): 0
- Crabgrass, Large plant response rating (large (Lg) crabgrass [15]; [18]): 90
- Plant response rating, Rice (rice): 0
- Plant response rating, Crabgrass, Large (large (Lg) crabgrass [16]; [19]): 30
- Plant response rating, Velvetleaf (velvetleaf [17]; [19]): 60

SMILES: Clc1cnc(Oc2ccccc2-n2cnc(Br)n2)nc1 [Compound 46]
- Plant response rating, Corn (corn [1]; [20]): 0
- Corn plant response rating (corn [1]; [21]): 0
- Plant response rating, Barnyardgrass (barnyardgrass [2]; [20]): 0
- Plant response rating, Barnyardgrass (barnyardgrass [2]; [22]): 20
- Plant response rating, Barnyardgrass (barnyardgrass [3]): 0
- Plant response rating, Corn (corn [4]; [20]): 0
- Plant response rating, Corn (corn [4]; [22]): 30
- Plant response rating, Foxtail, Giant (giant foxtail [5]; [20]): 0
- Foxtail, Giant plant response rating (giant foxtail [5]; [21]): 80
- Plant response rating, Sedge, Umbrella (sedge, umbrella): 0
- Plant response rating, Barnyardgrass (barnyardgrass [6]; [20]): 0
- Barnyardgrass plant response rating (barnyardgrass [6]; [21]): 20
- Plant response rating, Velvetleaf (velvetleaf [7]; [20]): 0
- Velvetleaf plant response rating (velvetleaf [7]; [21]): 0
- Plant response rating, Foxtail, Giant (giant foxtail [8]; [20]): 0
- Plant response rating, Foxtail, Giant (giant foxtail [8]; [22]): 20
- Plant response rating, Morningglory (morningglory [9]; [20]): 20
- Plant response rating, Morningglory (morningglory [9]; [22]): 50
- Plant response rating, Pigweed (pigweed [10]; [20]): 40
- Plant response rating, Pigweed (pigweed [10]; [22]): 80
- Plant response rating, Pigweed (pigweed [11]; [20]): 20
- Pigweed plant response rating (pigweed [11]; [21]): 90
- Plant response rating, Ducksalad (Heteranthera limosa): 0
- Plant response rating, Morningglory (morningglory [12]; [20]): 0
- Morningglory plant response rating (morningglory [12]; [21]): 0
- Plant response rating, Wheat (wheat [13]; [20]): 0
- Plant response rating, Wheat (wheat [13]; [22]): 0
- Plant response rating, Wheat (wheat [14]; [20]): 0
- Wheat plant response rating (wheat [14]; [21]): 0
- Plant response rating, Crabgrass, Large (large (Lg) crabgrass [15]; [20]): 20
- Crabgrass, Large plant response rating (large (Lg) crabgrass [15]; [21]): 100
- Plant response rating, Rice (rice): 0
- Plant response rating, Crabgrass, Large (large (Lg) crabgrass [16]; [20]): 0
- Plant response rating, Crabgrass, Large (large (Lg) crabgrass [16]; [22]): 20
- Plant response rating, Velvetleaf (velvetleaf [17]; [20]): 0
- Plant response rating, Velvetleaf (velvetleaf [17]; [22]): 40

SMILES: O=[N+]([O-])c1cnc(Oc2ccccc2-n2cc(Br)cn2)nc1 [Compound 225]
- Corn plant response rating (0 to 100 scale) (corn [1]; 125 g ai/ha): 0
- Corn plant response rating (corn [1]; [23]): 0
- Barnyardgrass plant response rating (barnyardgrass [2]; [20]): 0
- Plant response rating, Barnyardgrass (barnyardgrass [2]; [23]): 10
- Plant response rating, Barnyardgrass (barnyardgrass [3]): 0
- Corn plant response rating (corn [4]; [20]): 0
- Plant response rating, Corn (corn [4]; [23]): 0
- Foxtail, Giant plant response rating (0 to 100 scale) (giant foxtail [5]; 125 g ai/ha): 0
- Foxtail, Giant plant response rating (giant foxtail [5]; [23]): 0
- Plant response rating, Sedge, Umbrella (sedge, umbrella): 0
- Barnyardgrass plant response rating (0 to 100 scale, 0 is no effect, 100 is complete control) (barnyardgrass [6]; 125 g ai/ha): 0
- Barnyardgrass plant response rating (barnyardgrass [6]; [23]): 0
- Velvetleaf plant response rating (0 to 100 scale) (velvetleaf [7]; 125 g ai/ha): 0
- Velvetleaf plant response rating (velvetleaf [7]; [23]): 0
- Foxtail, Giant plant response rating (giant foxtail [8]; [20]): 0
- Plant response rating, Foxtail, Giant (giant foxtail [8]; [23]): 0
- Morningglory plant response rating (morningglory [9]; [20]): 0
- Plant response rating, Morningglory (morningglory [9]; [23]): 0
- Pigweed plant response rating (pigweed [10]; [20]): 0
- Plant response rating, Pigweed (pigweed [10]; [23]): 0
- Pigweed plant response rating (0 to 100 scale) (pigweed [11]; 125 g ai/ha): 0
- Pigweed plant response rating (pigweed [11]; [23]): 0
- Plant response rating, Ducksalad (Heteranthera limosa): 0
- Morningglory plant response rating (0 to 100 scale) (morningglory [12]; 125 g ai/ha): 0
- Morningglory plant response rating (morningglory [12]; [23]): 0
- Wheat plant response rating (wheat [13]; [20]): 0
- Plant response rating, Wheat (wheat [13]; [23]): 0
- Wheat plant response rating (0 to 100 scale) (wheat [14]; 125 g ai/ha): 0
- Wheat plant response rating (wheat [14]; [23]): 0
- Crabgrass, Large plant response rating (0 to 100 scale) (large (Lg) crabgrass [15]; 125 g ai/ha): 0
- Crabgrass, Large plant response rating (large (Lg) crabgrass [15]; [23]): 0
- Plant response rating, Rice (rice): 0
- Crabgrass, Large plant response rating (large (Lg) crabgrass [16]; [20]): 0
- Plant response rating, Crabgrass, Large (large (Lg) crabgrass [16]; [23]): 10
- Velvetleaf plant response rating (velvetleaf [17]; [20]): 0
- Plant response rating, Velvetleaf (velvetleaf [17]; [23]): 0

SMILES: O=Cc1cccc(Oc2ncc(Br)cn2)c1-n1cc(I)cn1 [Compound 183]
- Corn plant response rating (0 to 100 scale) (corn [1]; 125 g ai/ha): 0
- Corn plant response rating (corn [1]; [23]): 0
- Barnyardgrass plant response rating (barnyardgrass [2]; [20]): 0
- Plant response rating, Barnyardgrass (barnyardgrass [2]; [23]): 0
- Plant response rating, Barnyardgrass (barnyardgrass [3]): 0
- Corn plant response rating (corn [4]; [20]): 0
- Plant response rating, Corn (corn [4]; [23]): 0
- Foxtail, Giant plant response rating (0 to 100 scale) (giant foxtail [5]; 125 g ai/ha): 0
- Foxtail, Giant plant response rating (giant foxtail [5]; [23]): 0
- Plant response rating, Sedge, Umbrella (sedge, umbrella): 0
- Barnyardgrass plant response rating (0 to 100 scale, 0 is no effect, 100 is complete control) (barnyardgrass [6]; 125 g ai/ha): 0
- Barnyardgrass plant response rating (barnyardgrass [6]; [23]): 0
- Velvetleaf plant response rating (0 to 100 scale) (velvetleaf [7]; 125 g ai/ha): 0
- Velvetleaf plant response rating (velvetleaf [7]; [23]): 0
- Foxtail, Giant plant response rating (giant foxtail [8]; [20]): 0
- Plant response rating, Foxtail, Giant (giant foxtail [8]; [23]): 0
- Morningglory plant response rating (morningglory [9]; [20]): 0
- Plant response rating, Morningglory (morningglory [9]; [23]): 0
- Pigweed plant response rating (pigweed [10]; [20]): 20
- Plant response rating, Pigweed (pigweed [10]; [23]): 50
- Pigweed plant response rating (0 to 100 scale) (pigweed [11]; 125 g ai/ha): 20
- Pigweed plant response rating (pigweed [11]; [23]): 90
- Plant response rating, Ducksalad (Heteranthera limosa): 0
- Morningglory plant response rating (0 to 100 scale) (morningglory [12]; 125 g ai/ha): 0
- Morningglory plant response rating (morningglory [12]; [23]): 0
- Wheat plant response rating (wheat [13]; [20]): 0
- Plant response rating, Wheat (wheat [13]; [23]): 0
- Wheat plant response rating (0 to 100 scale) (wheat [14]; 125 g ai/ha): 0
- Wheat plant response rating (wheat [14]; [23]): 0
- Crabgrass, Large plant response rating (0 to 100 scale) (large (Lg) crabgrass [15]; 125 g ai/ha): 0
- Crabgrass, Large plant response rating (large (Lg) crabgrass [15]; [23]): 0
- Plant response rating, Rice (rice): 0
- Crabgrass, Large plant response rating (large (Lg) crabgrass [16]; [20]): 0
- Plant response rating, Crabgrass, Large (large (Lg) crabgrass [16]; [23]): 0
- Velvetleaf plant response rating (velvetleaf [17]; [20]): 20
- Plant response rating, Velvetleaf (velvetleaf [17]; [23]): 30
